Test results from US12054502B2, “Multifunctional immunity-targeted micromolecule anti-cancer medicine Bestazomib (Bestazomib) and preparation method and application thereof” (SHANDONG HUBBLE KISEN BIOLOGICAL TECHNOLOGY CO., LTD., priority 2018, dated 2024).
Where a name gives a salt, the structure may show the parent alone. Read-outs that look alike come from different tables or passages of the source.

Columns and labels:
[1] = tested on: human prostate cancer PC-3 cell line; assay: MTT cell proliferation inhibition, PC-3; assay type: cell-based; details: average of three tests, read-out: IC50 tumor cell proliferation, PC-3
Excerpt: (§1) The in vitro cell proliferation inhibitory activity test of the target compound adopts the MTT method. Human leukemia K562 cell line, human myeloma U266 cell line, human lung cancer A549 cell, human prostate cancer PC-3 cell line, human lymphoma U937 cell line, human liver cancer PLC/PRF/5 cell line, and human embryonic kidney cell HEK293, human normal hepatocyte HL7702 were taken, and all adopted routine culture. Logarithmic growth phase cells were used in the experiment. The cell suspensions of the above cells were taken and counted under an inverted microscope, and the medium was added to adjust the number of cells to 1×10^5/mL. A 96-well cell culture plate was taken for cell inoculation and drug experiment. The peripheral holes are not used (filled with sterile PBS). Blank control group, negative control group, positive control group and a drug experiment group were set up. The blank control group only added 150 L/Well of cell culture solution, the negative control group was inoculated with 100 µL/well of cell suspension and 50 µL/well of cell culture medium was added, the positive control group was inoculated with 100 µL/well of cell suspension and 50 µL/well of positive control drug solution was added, and the drug experiment group was inoculated with 100 L/Well of cell suspension and 50 µL/well of the test compound solution was added, the positive control group and the drug experimental group are respectively set up with 5 different final drug concentrations: […], 3 parallel re-wells for each drug concentration. After the drug was added, the 96-well cell culture plate was incubated at 37° C., 5% CO2 and saturated humidity for 48 hours, and 10 μL of 0.5% MTT staining solution was added to each well. […] Measure the OD value of each well with a microplate reader at a wavelength of 570 nm, and the cell growth inhibition rate is calculated according to the following formula: […]

[2] = tested on: human liver cancer PLC/PRF/5 cell line; assay: MTT cell proliferation inhibition, PLC/PRF/5; assay type: cell-based; details: average of three tests, read-out: IC50 tumor cell proliferation, PLC/PRF/5
Excerpt: as §1

[3] = tested on: human lung cancer A549 cell; assay: MTT cell proliferation inhibition, A549; assay type: cell-based; details: average of three tests, read-out: IC50 tumor cell proliferation, A549
Excerpt: as §1

[4] = tested on: human myeloma U266 cell line; assay: MTT cell proliferation inhibition, U266; assay type: cell-based; details: average of three tests, read-out: IC50 tumor cell proliferation, U266
Excerpt: as §1

[5] = tested on: human lymphoma U937 cell line; assay: MTT cell proliferation inhibition, U937; assay type: cell-based; details: average of three tests, read-out: IC50 tumor cell proliferation, U937
Excerpt: as §1

[6] = tested on: Human leukemia K562 cell line; assay: MTT cell proliferation inhibition, K562; assay type: cell-based; details: average of three tests, read-out: IC50 tumor cell proliferation, K562
Excerpt: as §1

[7] = biological target: 20S Proteasome (Homo sapiens (Human), UniProt P28074); assay: 20S proteasome detection kit, in vitro proteasome activity test (7-AMC fluorescence); assay type: biochemical; details: average of three tests
Excerpt: The proteasome interacts with its substrate to produce the fluorescent substance 7-amino-4-methylcoumarin (7-AMC), and the concentration of 7-AMC is positively correlated with the activity of the proteasome. Measure the fluorescence intensity at 380/460 nm to calculate the inhibition rate based on the absorbance of the inhibitor group and the control group, and calculate the IC50 value.

[8] = tested on: liver cancer H22; assay: Inhibition of liver cancer H22 lung metastasis in mice; assay type: in vivo, Kunming mice; details: intragastric administration, 2.69-4.48 mg/kg, two cycles; FIG. 1-4
Description: Take well-grown H22 mice with liver cancer, extract ascites, add sterile PBS solution to dilute to a concentration of 2.5×10^7/mL, and inoculate Kunming mice through tail vein with 200 μL each. The Kunming mice with overweight or underweight were excluded, randomly grouped, and the drug was administrated according to the dosing schedule.
The Kunming mice inoculated with H22 tumors were weighed and randomly divided into the following 6 groups, with 7 mice in each group. […] The mice were sacrificed 13 days after the inoculation. The calculation formula for the inhibition rate of lung metastasis of liver cancer was as follows: […]

[9] = tested on: macrophages; assay: Function test of clearance rate of charcoal particles (macrophage phagocytosis) in mice; assay type: in vivo, Kunming mice; details: for carbon clearance index (K) / phagocytosis index(α): mice, administered 2 weeks, mean ± standard deviation
Description: The mononuclear macrophage system is a very important defense system, which has a powerful ability to swallow and clear foreign particles. When a certain concentration of charcoal particles enters the body through the tail vein of the mice, they are carried to the liver, spleen, etc. by the flow of blood, and the macrophages of these organs can remove these charcoal particles. Within a certain concentration range, the rate of macrophages' elimination of charcoal particles is exponentially related to their dose, that is, the rate of phagocytosis is directly proportional to the concentration of charcoal particles in the blood. Therefore, taking the logarithm of the concentration of charcoal particles in the blood of mice as the ordinate and the time as the abscissa, the slope K represents the phagocytic rate of macrophages, but this is an uncorrected phagocytic index. In fact, its phagocytic activity is also related to the weight of the liver and spleen of mice. Different weights result in different K values. Therefore, it is generally expressed by the corrected phagocytic index α, which reflects the phagocytic activity per unit tissue weight. The calculation formulas of K and a are as follows: K=(log A1−log A2)/(t2−t1) α=(k^1/3×body weight)/(liver weight+spleen weight)
Materials: Kunming mice (female, 4-5 weeks old), Indian ink, normal saline, Na2CO3 solution (0.1% g/v), UV ultraviolet visible photometer.
Kunming mice were randomly divided into groups and administered for 2 weeks. One hour after the last administration, each mouse was injected intravenously with 0.1 mL/10 g of Indian ink 5 times diluted with normal saline, and started timing immediately after injection, 20 μL of blood samples were accurately collected from the orbital venous plexus and added into 2 mL of 0.1% Na2CO3 solution at 2 min (t1) and 10 min (t2) time points, respectively. After mixing evenly, use 0.1% Na2CO3 solution as the control group, each administration group was the experimental group, the absorbance at two time points of t1 and t2 were measured by ultraviolet spectrophotometer at 600 nm, and counted as A1 and A2. The clearance index is calculated by the calculation formula of the above K value. In addition, after the completion of blood collection, the mice were sacrificed by neck removal, and the liver and spleen were taken out and weighed. Calculate the phagocytic index α.

[10] = tested on: H22 liver ascites model; assay: Survival test of H22 liver ascites model; assay type: in vivo, Kunming mice; details: equal molar amount with Ixazomib, FIG. 5-6
Description: Take well-grown H22 mice with liver cancer, extract ascites, add sterile PBS solution to dilute to a concentration of 2.5×10^7/mL, and inoculate the abdominal cavity of Kunming mice with 200 μL each. 5 days later, the animals were randomly grouped to administrate the drug. The day of inoculation was the first day. The body weight of the animals was recorded at the time of administration. The mice were randomly weighed and divided into the following 6 groups, with 10 mice in each group. […] The mice were administered according to the predetermined dosage, weighed and recorded respectively.
(§2) Use Origin7.5 software's one-way analysis of variance (One-Way ANOVA) function to calculate the overall difference; use t-test to compare each group with the blank group, and the life extension rate of each drug group was calculated by the following formula: […]

[11] = biological target: Aminopeptidase N (APN) (Homo sapiens (Human), UniProt P15144); assay: Inhibition of aminopeptidase N in vitro (L-leucyl p-nitroaniline substrate, absorbance 405 nm); assay type: biochemical; details: average of three tests
Chain of Aminopeptidase N (APN) (P15144 whole entry, species assumed): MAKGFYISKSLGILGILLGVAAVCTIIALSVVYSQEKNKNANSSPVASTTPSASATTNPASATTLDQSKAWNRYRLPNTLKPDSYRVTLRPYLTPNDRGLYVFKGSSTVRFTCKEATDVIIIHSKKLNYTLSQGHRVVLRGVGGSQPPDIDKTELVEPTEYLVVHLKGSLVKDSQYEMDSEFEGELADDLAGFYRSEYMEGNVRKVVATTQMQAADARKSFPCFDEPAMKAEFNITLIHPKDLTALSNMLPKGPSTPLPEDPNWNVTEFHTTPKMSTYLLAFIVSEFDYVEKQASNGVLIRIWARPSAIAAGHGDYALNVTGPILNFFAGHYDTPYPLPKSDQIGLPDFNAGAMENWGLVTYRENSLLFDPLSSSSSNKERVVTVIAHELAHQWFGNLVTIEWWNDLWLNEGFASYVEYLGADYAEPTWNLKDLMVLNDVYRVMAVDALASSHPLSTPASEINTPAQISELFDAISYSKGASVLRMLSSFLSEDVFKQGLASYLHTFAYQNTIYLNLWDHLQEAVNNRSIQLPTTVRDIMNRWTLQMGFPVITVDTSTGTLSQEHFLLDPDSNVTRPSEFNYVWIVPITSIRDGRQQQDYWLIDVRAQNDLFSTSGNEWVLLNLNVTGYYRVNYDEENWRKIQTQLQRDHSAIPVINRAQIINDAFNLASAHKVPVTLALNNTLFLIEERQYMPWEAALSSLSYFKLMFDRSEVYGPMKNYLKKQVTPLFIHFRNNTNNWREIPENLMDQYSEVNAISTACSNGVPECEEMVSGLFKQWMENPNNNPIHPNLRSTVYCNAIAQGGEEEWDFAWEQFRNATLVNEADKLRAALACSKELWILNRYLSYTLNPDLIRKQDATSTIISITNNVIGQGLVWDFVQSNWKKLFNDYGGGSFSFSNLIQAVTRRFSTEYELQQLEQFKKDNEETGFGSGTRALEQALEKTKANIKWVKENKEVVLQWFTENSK
Excerpt: Aminopeptidase N interacts with its commercial substrate L-leucyl p-nitroaniline (purchased from Sigma) to produce p-nitroaniline that is absorbed at 405 nm, and the concentration of p-nitroaniline is positively correlated to the enzyme activity. Measure the absorbance at 405 nm, and calculate the inhibition rate based on the absorbance of the inhibitor group and the control group, and calculate the IC50 value.

[12] = tested on: human normal hepatocyte HL7702; assay: MTT proliferation inhibition on normal human cells, HL7702; assay type: cell-based; details: L02, 48 hours, average of three tests
Excerpt: (§3) The in vitro cell proliferation inhibitory activity test of the target compound adopts the MTT method. Human leukemia K562 cell line, human myeloma U266 cell line, human lung cancer A549 cell, human prostate cancer PC-3 cell line, human lymphoma U937 cell line, human liver cancer PLC/PRF/5 cell line, and human embryonic kidney cell HEK293, human normal hepatocyte HL7702 were taken, and all adopted routine culture. Logarithmic growth phase cells were used in the experiment. The cell suspensions of the above cells were taken and counted under an inverted microscope, and the medium was added to adjust the number of cells to 1×10^5/mL. A 96-well cell culture plate was taken for cell inoculation and drug experiment. The peripheral holes are not used (filled with sterile PBS). Blank control group, negative control group, positive control group and a drug experiment group were set up. […] Measure the OD value of each well with a microplate reader at a wavelength of 570 nm, and the cell growth inhibition rate is calculated according to the following formula: […]

[13] = tested on: human embryonic kidney cell HEK293; assay: MTT proliferation inhibition on normal human cells, HEK293; assay type: cell-based; details: 48 hours, average of three tests
Excerpt: as §3

[14] = tested on: B16F10 melanoma cells; assay: Subcutaneous tumor survival test with B16F10 melanoma cells; assay type: in vivo, C57 mice
Description: The B16F10 melanoma cells in the logarithmic growth phase were taken, diluted with sterile PBS solution to a concentration of 1.5×10^7 cells/mL, and inoculated them subcutaneously in C57 mice with 150 μL each. 5 days later, the animals were randomly assigned to administer the drug. The day of inoculation was the first day. The body weight of the animals was recorded at the time of administration. The mice were randomly weighed and divided into the following 5 groups. […] The mice were administered according to the predetermined dosage, weighed and recorded respectively. Continuous observation until the death of the mouse was the end of observation, and the time of death of each mouse was recorded. The time of death of the mice in each group was counted.
as §2

[15] = Homo sapiens, PLC-PRF-5, 48 hours

IC50 [11]	Compound	IC50 [7]	IC50 ([1]; Homo sapiens, PC-3, 48 hours)	IC50 [2, 15]	IC50 ([3]; Homo sapiens, A549, 48 hours)	IC50 ([4]; Homo sapiens, U-266, 48 hours)	IC50 ([5]; Homo sapiens, U-937, 48 hours)	IC50 [12]	IC50 ([6]; Homo sapiens, K562, 48 hours)	IC50 [13]	other results
–	CC(C)C[C@H](NC(=O)[C@@H](O)[C@H](N)Cc1ccccc1)C(=O)O [Bestatin, reference compound]	–	–	–	–	–	–	–	–	–	IC50 ([1]; 48 hours): > 200 µM; IC50 ([2]; 48 hours): > 200 µM; IC50 ([3]; 48 hours): > 200 µM; IC50 ([4]; 48 hours): > 200 µM; IC50 ([5]; 48 hours): > 200 µM; IC50 ([6]; 48 hours): > 200 µM
3.87 µM	CC(C)C[C@H](NC(=O)[C@@H](O)[C@H](N)Cc1ccccc1)B(O)O [Bestazomib, (R)-1-((2S,3R)-3-amino-2-hydroxy-4-phenylbutyramide)-3-methylbu tylboronic acid]	10.2 µM	65.7 ± 5.83 µM	79.6 ± 6.32 µM	98.4 ± 7.51 µM	36.6 ± 2.07 µM	15.5 ± 1.41 µM	–	37.1 ± 2.28 µM	–	–
18.2 µM	CC(C)C[C@H](NC(=O)CNC(=O)c1cc(Cl)ccc1Cl)B(O)O [Ixazomib, reference compound]	–	–	–	–	–	–	4.04 ± 0.63 µM	–	17.1 ± 2.27 µM	–

Compound	IC50 [11]	IC50 [7]	IC50 ([1]; Homo sapiens, PC-3, 48 hours)	IC50 [2, 15]	IC50 ([3]; Homo sapiens, A549, 48 hours)	IC50 ([4]; Homo sapiens, U-266, 48 hours)	IC50 ([5]; Homo sapiens, U-937, 48 hours)	IC50 [12]	IC50 ([6]; Homo sapiens, K562, 48 hours)	IC50 [13]	other results
CC(C)C[C@H](NC(=O)[C@@H](O)[C@H](N)Cc1ccccc1)B1OC(=O)C(CC(=O)O)(CC(=O)O)O1 [Bestazomib Citrate, 2,2′-(2-((R)-1-((2S,3R)-3-amino-2-hydroxy-4-phenylbutanoylamino)-3-methylbutyl)-5-oxo-1,3,2-dioxaborolan-4,4-diyl) diacetic acid]	2.14 µM	8.56 µM	45.6 ± 3.16 µM	54.7 ± 4.12 µM	63.6 ± 5.71 µM	21.7 ± 1.87 µM	6.42 ± 0.64 µM	371 ± 70.9 µM	12.3 ± 1.46 µM	446 ± 19.4 µM	anti-tumor activity (H22 lung metastasis) [8]: strong anti-tumor activity; phagocytic ability of macrophages in mice ([9]; compared with positive control Ixazomib): significantly stronger than that of the positive control Ixazomib; carbon clearance index (K) ([9]; high-dose 4.48 mg/kg/4 d po.): 0.063 ± 0.0002; phagocytosis index(α) ([9]; high-dose 4.48 mg/kg/4 d po.): 21.628 ± 0.026; carbon clearance index (K) ([9]; low-dose 2.69 mg/kg/4 d po.): 0.066 ± 0.0077; phagocytosis index(α) ([9]; low-dose 2.69 mg/kg/4 d po.): 24.842 ± 0.969; carbon clearance index (K) ([9]; medium-dose 3.59 mg/kg/4 d po.): 0.076 ± 0.0016; phagocytosis index(α) ([9]; medium-dose 3.59 mg/kg/4 d po.): 21.620 ± 0.154; survival time of mice [10]: better than the prolonged time of the positive drug Ixazomib; survival time of B16F10 melanoma mice ([14]; 4, 6, 9 mg/kg/4d, FIG. 7): significantly prolong the survival time; survival time of mice compared with Ixazomib ([14]; medium-dose 6 mg/kg/4d and high-dose 9 mg/kg/4d vs Ixazomib 4 mg/kg/4d): better survival time of mice in the medium-dose and high-dose than the positive drug Ixazomib
